For one data set, the system named is MSSA. In kind it is cell-based, Staphylococcus aureus. On the procedure:
(§1) The L- and D- forms of Ctl and also the corresponding L- and D-forms of the scramble peptides were tested by Atlangram (Nantes, France) against resistant Gram-negative bacteria (Escherichia coli, Klebsiella pneumoniae, Enterobacter cloacae, Enterobacter aerogenes, Serratia marcescens, Morganella morganii, Pseudomonas aeruginosa), MSSA, MRSA and yeast (C. albicans). The MICs were determined according to the CASFM/EUCAST 2018 (Comité de l’Antibiogramme de la Société Française de Microbiologie).

A further data set concerns MRSA. In kind it is cell-based, Staphylococcus aureus. On the procedure: as §1
The test system of another data set is Morganella morganii. In kind it is cell-based. On the procedure: as §1
Another data set concerns Candida albicans. Format: cell-based. On the procedure: as §1
The next data set relates to Serratia marcescens. In kind it is cell-based. On the procedure: as §1
For a further data set, the system named is Pseudomonas aeruginosa. Format: cell-based. As for the experimental part: as §1
Another data set concerns Citrobacter freundii. Format: cell-based.
Data set [1] has as its system methicillin sensitive S. aureus (MSSA, strain 49775). In kind it is cell-based, Staphylococcus aureus. The conditions noted are these: for MIC100 MSSA: MSSA strain 49775, MHB medium pH 7.4, 24 h at 37 °C, A620 nm, triplicates. As for the experimental part: (§2) Antibacterial assays were realized to the method previously reported[22],[25]. S. aureus strains were pre-cultured for 20 h in aerobic conditions at 37 °C in Mueller–Hinton Broth (MHB) medium (Becton–Dickinson Microbiology Company, Sparks, USA) (pH 7.4). Bacteria were suspended at absorbance of 0.001 at 620 nm in the MHB medium. Antibacterial activity was tested for 24 h incubation at 37 °C with shaking by measuring the inhibition of bacterial growth. Ten µl of final volumes (10–200 µg/mL) of synthetic peptides were incubated in microtitration plates with 90 µl of a mid-logarithmic phase culture of bacteria, with a starting absorbance of 0.001 at 620 nm. A mixture of Tetracycline (10 mg/L) and Cefotaxime (0.1 mg/L) were used as positive controls. Microbial growth was assessed by the increase of absorbance after 24 h incubation at 37 °C. The A620 nm value of control cultures growing in the absence of peptide and antibiotics was defined as 100% growth. A620 nm value with the antibiotics (Tetracycline and Cefotaxime) was taken as 100% inhibition. Absence of bacterial growth was verified by agar plate spreading. Each assay was performed in triplicates. Data were shown as mean + /− standard deviation of three independent experiments; p < 0.05.

The subject of data set [2] is methicillin resistant S. aureus (MRSA, strain S1). Description: Antibacterial growth inhibition assay, MRSA strain S1. Format: cell-based, Staphylococcus aureus. The conditions noted are these: MHB medium pH 7.4, 24 h at 37 °C, A620 nm, triplicates. As for the experimental part: as §2
Data set [3] has as its system C. albicans (ATCC 10231TM). Description: Antimicrobial assay against C. albicans ATCC 10231. Conditions: Sabouraud medium, 24 h at 37 °C, OD620nm, lowest concentration inhibiting 100% of growth. Format: cell-based, Candida albicans. On the procedure:
Antimicrobial assays against C. albicans (ATCC 10231TM) were realized according to the method previously reported. C. albicans was cultured in Sabouraud medium (Sigma-Aldrich, Saint Louis, USA) supplemented with tetracycline (10 μg/mL) and cefotaxime (10 μg/mL) at 37 °C for 24 h. C. albicans (OD620nm = 0.001) were plated in 96-well plates and treated either with different concentrations of the peptides of interest, and/or with different concentrations of voriconazole (VCZ) (Sigma-Aldrich, Saint Louis, USA). As a positive control, cells were treated with 10 μg/mL VCZ. After 24 h incubation, yeast growth was assessed by optical density OD620nm using a spectrophotometer Multiskan EX Microplate Reader Lab (Thermo Fisher Scientific, Waltham, MA, USA).
The MIC of the antifungal agents is defined as the lowest concentration of drug able to inhibit 100% of the growth of C. albicans.

For data set [4], the system named is Endoprotease Glu-C from S. aureus V8 (E.C. 3.4.21.19). Description: endoprotease Glu-C in 50 mM Tris–HCl pH 8.2 or PBS. Conditions: S. aureus V8, 37 °C, up to 18 h.
For data set [5] the test system is unchanged. Kind of data set: Endoprotease Glu-C in 50 mM Tris–HCl pH 8.2 or PBS. The conditions noted are these: S. aureus V8 (enzyme source), 37 °C, up to 18 h.
The subject of a further data set is CD14 cells. Kind of data set: Cytokine release assay, ELISA. Format: cell-based, human. The conditions noted are these: 24 h, cells from 2 patients. On the procedure: Three types of immune cells were prepared from human monocytes provided from the EFS (Etablissement Français du Sang). Dendritic cells (DC1a), CD14 and macrophages were obtained after treatment of monocytes by cytokines according to the methods previously reported[31],[32] and the identification of the immune cells was validated by using flow cytometry analysis (Fluorescence Activated Cell Sorting, FACS).
(§3) The release of cytokines IL-6, IL-8, IL-10 and TNF-α induced after the treatment of immune cells by Cts was realized by the use of an automated ELISA immunoassay (Immulite One, Siemens la Garenne-Colombe, France) and with the Bio-Plex Multiplex Immunoassay system (Bio-Rad, Marnes-la-Coquette) for the treatment of Human Peripheral Blood Mononuclear Cells (PBMCs) by L-Ctl, D-Ctl, Ctl-C, D-Ctl-C and P3. PBMCs from healthy volunteers were obtained from the blood transfusion centre of Strasbourg (Etablissement Français du Sang, Strasbourg) and isolated by density gradient centrifugation using Lymphoprep (Stemcell Technologies). PMBC were then maintained in AIM V medium (Thermo Fisher Scientific, Waltham, MA, USA) at 37 °C in a 5% CO2 humidified incubator and treated for 24 h with 30 µM of each peptide (L-Ctl, D-Ctl, Ctl-C, D-Ctl-C and P3). Three technical replicates were performed for each condition. Supernatants were then filtered and assessed for cytokine dosage according to the manufacturer’s instructions.
(An ELISA detects its analyte on a solid surface through an enzyme-linked reagent.)

Data set [6] deals with Human Peripheral Blood Mononuclear Cells (PBMCs). Kind of data set: Cytokine release assay, Bio-Plex Multiplex Immunoassay. Format: cell-based. The conditions noted are these: 30 µM, 24 h, IL-6, IL-8, IL-10 pointed out, two healthy volunteers.
From the text: as §3

The subject of data set [7] is proteases produced by Staphylococcus aureus. Description: proteases produced by Staphylococcus aureus. The conditions noted are these: cited from earlier work.
The subject of another data set is Escherichia coli. In kind it is cell-based. As for the experimental part: as §1

≈ marks a conversion by molar mass, not a printed value. Entries after “also recorded” stand apart in the source; their conditions may differ. Starred links: 1 amine or outer side, 2 acyl side, 3 side chain; linkers in the order of their positions; H or OH if unused. Positions of bridges follow the written chain, without caps; N, C: chain ends. Non-standard residues stand in square brackets, D forms with d. Residues, ends and D or L forms follow the SMILES beside them. Chains are numbered I, II in the order given. X1 = O=C1CC([*:1])C(=O)N1CCOCCOCCOCCN1C(=O)CC([*:2])C1=O; Dopa = N[C@@H](Cc1ccc(O)c(O)c1)C(=O)O A value given as a limit tells only on which side of the number the result lay.

Take `CSCC[C@@H](NC(=O)[C@H](N)Cc1ccccc1)C(=O)N[C@H](CCCNC(=N)N)C(=O)N[C@H](CC(C)C)C(=O)N[C@H](CCCNC(=N)N)C(=O)N[C@H](Cc1ccc(O)cc1)C(=O)N[C@H](CCCNC(=N)N)C(=O)N[C@H](CO)C(=O)N[C@H](CO)C(=O)N[C@H](C)C(=O)N[C@H](Cc1ccccc1)C(=O)NCC(=O)NCC(=O)N[C@H](CCCNC(=N)N)C(=O)N[C@H](CCCNC(=N)N)C(=O)O` [Control D, reference compound] (H-[dF][dM][dR][dL][dR][dY][dR][dS][dS][dA][dF]GG[dR][dR]-OH): the minimal inhibitory concentration (MIC) with MSSA is over 128 µg/mL; in the data set with MRSA, over 128 µg/mL; in the data set on Morganella morganii, over 128 µg/mL; against Candida albicans, 512 µg/mL (≈ 275 µM); in the data set with Serratia marcescens, over 128 µg/mL; in the data set on Pseudomonas aeruginosa, over 128 µg/mL. For the same compound, the minimal inhibitory concentration (MIC) against Citrobacter freundii was found to be 128 µg/mL (≈ 68.8 µM).

“RSMRLSFRARGYGFRMal-(16PEG)-MalRFGYGRARFSLRMSR [Peptide P5, dimeric form of Ctl with spacer of 16 PEG]”: the “MIC100 MSSA” value in data set [1] is over 100 µM. Further, the “MIC100 MRSA” value in [2] was over 100 µM. In addition, the “MIC100 C. albicans” value in [3] was 50 µM.

With TLRGGE-RSMRLSFRARGYGFR, the cleaved bond entry in [4] is “R-A, major”; in data set [5] it was “R-A, major”. Also, the fragment found entry in data set [4] is reported as “TLRGGE, major”.

For the compound “RSMRLSFRARGYGFRMal-(46PEG)-MalRFGYGRARFSLRMSR [Peptide P6, dimeric form of Ctl with spacer of 46 PEG]”, the “MIC100 MSSA” value in [1] is listed as over 100 µM.

Turning to Catestatin [Cts], in the data set with CD14 cells (15 µM, cell type not given), the “production of IL-6” value is “not modified”, the “production of IL-10” value was “not modified” and the “production of TNF-α” value was “not modified”. In addition, the “decrease of the amount of IL-8 released versus controls (without peptide)” value with CD14 cells (CD14, 15 µM) stood at 26%.

In the case of `CSCC[C@H](NC(=O)[C@H](CO)NC(=O)[C@@H](N)CCCNC(=N)N)C(=O)N[C@@H](CCCNC(=N)N)C(=O)N[C@@H](CC(C)C)C(=O)N[C@@H](CO)C(=O)N[C@@H](Cc1ccccc1)C(=O)N[C@@H](CCCNC(=N)N)C(=O)N[C@@H](C)C(=O)N[C@@H](CCCNC(=N)N)C(=O)NCC(=O)N[C@@H](Cc1ccc(O)cc1)C(=O)NCC(=O)N[C@@H](Cc1ccccc1)C(=O)N[C@@H](CCCNC(=N)N)C(=O)N[C@@H](CSC1CC(=O)N(CCOCCOCCOCCN2C(=O)CC(SC[C@H](NC(=O)[C@H](CCCNC(=N)N)NC(=O)[C@H](Cc3ccccc3)NC(=O)CNC(=O)[C@H](Cc3ccc(O)cc3)NC(=O)CNC(=O)[C@H](CCCNC(=N)N)NC(=O)[C@H](C)NC(=O)[C@H](CCCNC(=N)N)NC(=O)[C@H](Cc3ccccc3)NC(=O)[C@H](CO)NC(=O)[C@H](CC(C)C)NC(=O)[C@H](CCCNC(=N)N)NC(=O)[C@H](CCSC)NC(=O)[C@H](CO)NC(=O)[C@@H](N)CCCNC(=N)N)C(=O)O)C2=O)C1=O)C(=O)O` (stereo partly drawn) [Peptide P3] (I: H-RSMRLSFRARGYGFRC-OH / II: H-RSMRLSFRARGYGFRC-OH; linker I:16-II:16 via X1; N-terminus and C-terminus assumed), the “MIC100 MSSA” value in data set [1] was found to be 30 µM (≈ 128 µg/mL). Also, the “MIC100 MRSA” value in [2] is given as 50 µM (≈ 214 µg/mL). In addition, the “MIC100 C. albicans” value in [3] is reported as 20 µM (≈ 85.6 µg/mL). The “release of the tested cytokines from PBMCs” value in [6] was “unable to induce te release of the tested cytokines; also recorded: unable to release significantly the tested cytokines”.

As to RSMRLSFRARGYGFR, the not cleaved entry in data set [7] is “resistant to degradation by the proteases produced by Staphylococcus aureus”.

As to `CSCC[C@@H](NC(=O)[C@@H](CO)NC(=O)[C@@H](CCCNC(=N)N)NC(=O)[C@H](CCC(=O)O)NC(=O)CNC(=O)CNC(=O)[C@H](CCCNC(=N)N)NC(=O)[C@H](CC(C)C)NC(=O)[C@@H](NC(=O)[C@H](Cc1ccc(O)c(O)c1)NC(=O)[C@H](CCCCN)NC(=O)[C@H](Cc1ccc(O)c(O)c1)NC(=O)[C@H](CCCCN)NC(=O)[C@@H](N)Cc1ccc(O)c(O)c1)[C@@H](C)O)C(=O)N[C@H](CCCNC(=N)N)C(=O)N[C@H](CC(C)C)C(=O)N[C@H](CO)C(=O)N[C@H](Cc1ccccc1)C(=O)N[C@H](CCCNC(=N)N)C(=O)N[C@H](C)C(=O)N[C@H](CCCNC(=N)N)C(=O)NCC(=O)N[C@H](Cc1ccc(O)cc1)C(=O)NCC(=O)N[C@H](Cc1ccccc1)C(=O)N[C@H](CCCNC(=N)N)C(=O)O` [DOPA5T-(D)Ctl] (H-[Dopa]K[Dopa]K[Dopa]TLRGGE[dR][dS][dM][dR][dL][dS][dF][dR][dA][dR]G[dY]G[dF][dR]-OH), half-maximal inhibition in data set [1] (methicillin sensitive (, strain 49775, 24 h)) (IC50) required 35 µM.

With `CSCC[C@@H](NC(=O)[C@@H](CO)NC(=O)[C@H](N)CCCNC(=N)N)C(=O)N[C@H](CCCNC(=N)N)C(=O)N[C@H](CC(C)C)C(=O)N[C@H](CO)C(=O)N[C@H](Cc1ccccc1)C(=O)N[C@H](CCCNC(=N)N)C(=O)N[C@H](C)C(=O)N[C@H](CCCNC(=N)N)C(=O)NCC(=O)N[C@H](Cc1ccc(O)cc1)C(=O)NCC(=O)N[C@H](Cc1ccccc1)C(=O)N[C@H](CCCNC(=N)N)C(=O)O` [D-Ctl] (H-[dR][dS][dM][dR][dL][dS][dF][dR][dA][dR]G[dY]G[dF][dR]-OH), the MIC against MRSA is reported as 64 µg/mL (≈ 34.4 µM); in the data set with Morganella morganii it was over 128 µg/mL; against Candida albicans, 256 µg/mL (≈ 138 µM). Also, the “MIC against several strains of E. coli” value against Escherichia coli is 8 to 32 µg/mL.

Take “RSMRLSFRARGYGFRMal-(12PEG)-MalRFGYGRARFSLRMSR [Peptide P4, dimeric form of Ctl with spacer of 12 PEG]”: the “MIC100 MSSA” value in data set [1] is over 100 µM.

Consider “DOPA-K-DOPA-K-DOPA-TLRGGE-RSMRLSFRARGYGFR”, for which, in data set [4], the cleaved bond entry was “E-R, major”.

As usually defined, the MIC is the lowest concentration found to suppress growth. A lower MIC goes with greater potency. For orientation: IC50 means the concentration needed to halve the response being measured. Low readings indicate greater potency in that assay, high ones weaker potency in that assay.

The record behind these values is paper PMC8329280 (Scientific Reports, 2021).
